Assay [1] addresses T1, Mitogen-activated protein kinase 14 (Homo sapiens, UniProt Q16539). Briefly: Inhibition of human recombinant full length GST-tagged p38alpha expressed in Escherichia coli preincubated for 2 hrs followed by ATP addition and measured after 1 hr by Alpha screen assay. For orientation: Bead proximity is the source of the signal in Alpha formats.
Assay [2] in a line: Inhibition of LPS-stimulated TNFalpha release in human PBMC cells preincubated for 1 hr followed by LPS stimulation and measured after 18 hrs. Type of assay: functional, cell-based.
Assay [3] addresses T1, Mitogen-activated protein kinase 14. Put plainly: Displacement of SKF-86002 from human inactivated p38alpha assessed as dissociation half life incubated for 2 hrs by fluorescence based analysis.

The record followed here is ChEMBL document CHEMBL5154908, “Design, Synthesis, and Biological Characterization of Inhaled p38α/β MAPK Inhibitors for the Treatment of Lung Inflammatory Diseases” (J Med Chem, 2022).

Each structure is given as a SMILES string. pIC50: −log10 of the molar value. Some results are limits rather than exact numbers.

T1 sequence (Q16539 whole entry): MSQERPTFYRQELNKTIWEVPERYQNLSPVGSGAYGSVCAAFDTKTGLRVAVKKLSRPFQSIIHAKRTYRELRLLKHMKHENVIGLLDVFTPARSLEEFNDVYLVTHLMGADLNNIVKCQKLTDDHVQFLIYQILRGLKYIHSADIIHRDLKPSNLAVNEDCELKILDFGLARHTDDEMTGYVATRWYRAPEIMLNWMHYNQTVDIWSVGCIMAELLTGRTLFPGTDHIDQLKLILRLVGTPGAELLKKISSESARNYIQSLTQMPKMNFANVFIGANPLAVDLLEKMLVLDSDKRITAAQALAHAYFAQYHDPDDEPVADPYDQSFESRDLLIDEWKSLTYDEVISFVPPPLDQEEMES

As for `COCCN(C)CCn1cc(-n2nc(C(C)(C)C)cc2NC(=O)N[C@H]2CC[C@@H](Oc3ccc4nnc(N5CCCC[C@@H]5C)n4c3)c3ccccc32)cn1`, the pIC50 in assay [1] is 9.70; in assay [2] it was 9.05. Moreover, the T1/2 in assay [3] is above 16 h.
In the case of `Cc1ccc(-n2nc(C(C)(C)C)cc2NC(=O)N[C@H]2CC[C@@H](Oc3ccc4nnc(N5CCCC5)n4c3)c3ccccc32)cc1`, the pIC50 in assay [1] is 9.30; in assay [2], 9.52. In addition, the T1/2 in assay [3] is above 16 h.
On the same counts, the results for `Cc1ccc(-n2nc(C(C)(C)C)cc2NC(=O)N[C@H]2CC[C@@H](Oc3ccc4nnc(C5CCCCC5)n4c3)c3ccccc32)cc1` are 9.52, 9.40 and above 16 h.
Consider `CC(C)(C)c1cc(NC(=O)N[C@H]2CC[C@@H](Oc3ccc4nnc(N5CCC(O)CC5)n4c3)c3ccccc32)n(-c2ccc(CO)cc2)n1`, for which the values for the pIC50 in assay [1] and in assay [2] were 9.40 and 7.85, respectively. In assay [3], the T1/2 was above 16 h.
With `C[C@@H]1CCCCN1c1nnc2ccc(O[C@@H]3CC[C@H](NC(=O)Nc4cc(C(C)(C)C)nn4-c4cccc(OCCN(C)C)c4)c4ccccc43)cn12`, the negative-log IC50 (pIC50) in assay [1] is 9.70; in assay [2] it was 8.80. Further, in assay [3], the T1/2 was 5.4 h.
`C[C@H]1CCCCN1c1nnc2ccc(O[C@@H]3CC[C@H](NC(=O)Nc4cc(C(C)(C)C)nn4-c4cnn(CCN5CCC(O)CC5)c4)c4ccccc43)cn12`: the values for the pIC50 in assay [1] and in assay [2] were 9.40 and 8.29, respectively. The T1/2 in assay [3] was above 16 h.
As to `C[C@@H]1CCC[C@H](C)N1c1nnc2ccc(O[C@@H]3CC[C@H](NC(=O)Nc4cc(C(C)(C)C)nn4-c4cccc(OCCN(C)C)c4)c4ccccc43)cn12`, the pIC50 is 9.52 in assay [1] and 9.00 in assay [2]. The T1/2 in assay [3] is above 16 h.
In the case of `CN(C)CCOc1cccc(-n2nc(C(C)(C)C)cc2NC(=O)N[C@H]2CC[C@@H](Oc3ccc4nnc(N5CCCCC5)n4c3)c3ccccc32)c1`, the pIC50 in assay [1] was 9.22; in assay [2] it was 8.89. Also, the T1/2 in assay [3] stood at 3.6 h.
Turning to `CC(C)c1nnc2ccc(O[C@@H]3CC[C@H](NC(=O)Nc4cc(C(C)(C)C)nn4-c4cccc(OCCN(C)C)c4)c4ccccc43)cn12`, the pIC50 in assay [1] is 9.10; in assay [2], 8.04. Also, the T1/2 in assay [3] stood at 0.89 h.
Consider `C[C@H]1CCCCN1c1nnc2ccc(O[C@@H]3CC[C@H](NC(=O)Nc4cc(C(C)(C)C)nn4-c4cccc(OCCN(C)C)n4)c4ccccc43)cn12`, for which the pIC50 in assay [1] is 8.70; in assay [2], 8.24. In addition, the T1/2 in assay [3] came out at 2.9 h.
For `C[C@H]1CCCCC1c1nnc2ccc(O[C@@H]3CC[C@H](NC(=O)Nc4cc(C(C)(C)C)nn4-c4cccc(OCCN5CCOCC5)c4)c4ccccc43)cn12` (stereo partly specified), the values for the pIC50 in assay [1] and in assay [2] were 9.30 and 9.10, respectively. Besides, the T1/2 in assay [3] was above 16 h.
With `C[C@H]1CCCCN1c1nnc2ccc(O[C@@H]3CC[C@H](NC(=O)Nc4cc(C(C)(C)C)nn4-c4cncc(OCCN(C)C)c4)c4ccccc43)cn12`, the negative-log IC50 (pIC50) in assay [1] was 10.52; in assay [2], 9.00. Besides, the T1/2 in assay [3] was determined as 5 h.
In the case of `CC(C)c1nnc2ccc(O[C@@H]3CC[C@H](NC(=O)Nc4cc(C(C)(C)C)nn4C)c4ccccc43)cn12`, the negative-log IC50 (pIC50) is 9.52 in assay [1] and 8.41 in assay [2]. In assay [3], the T1/2 was 0.07 h.
For the molecule `CC(C)c1nnc2ccc(O[C@@H]3CC[C@H](NC(=O)Nc4cc(C(C)(C)C)nn4-c4cccc(OCCO)c4)c4ccccc43)cn12`, the results for the pIC50 in assay [1] and in assay [2] were 9.40 and 9.00, respectively. Besides, the T1/2 in assay [3] worked out at 1.9 h.
With `C[C@H]1CCCCN1c1nnc2ccc(O[C@@H]3CC[C@H](NC(=O)Nc4cc(C(C)(C)C)nn4-c4cnn(CCN5CCCOCC5)c4)c4ccccc43)cn12`, the pIC50 in assay [1] is 9.40; in assay [2] it was 9.10. In addition, in assay [3], the T1/2 is above 16 h.
On the same counts, the results for `C[C@H]1CCCCN1c1nnc2ccc(O[C@@H]3CC[C@H](NC(=O)Nc4cc(C(C)(C)C)nn4-c4cccc(OCCN5CCN(C)CC5)c4)c4ccccc43)cn12` are 9.52, 8.68 and 5.1 h.
In the case of `CC(C)(C)c1cc(NC(=O)N[C@H]2CC[C@@H](Oc3ccc4nnc(N5CCCCC5)n4c3)c3ccccc32)n(-c2cccc(CN3CCNCC3)c2)n1`, the figures for the pIC50 in assay [1] and in assay [2] were 9.10 and 8.96, respectively. Besides, the T1/2 in assay [3] stood at 5 h.
As for `CCN(C)CCn1cc(-n2nc(C(C)(C)C)cc2NC(=O)N[C@H]2CC[C@@H](Oc3ccc4nnc(N5CCCC[C@@H]5C)n4c3)c3ccccc32)cn1`, the figures for the pIC50 in assay [1] and in assay [2] were 9.70 and 8.60, respectively. In addition, in assay [3], the T1/2 was 9 h.
Take `Cc1ccc(-n2nc(C(C)(C)C)cc2NC(=O)N[C@H]2CC[C@H](Oc3ccc4nnc(C(C)C)n4c3)c3ccccc32)cc1`: the pIC50 in assay [1] and in assay [2] was 10.00 each time. The T1/2 in assay [3] was above 16 h.
`Cc1ccc(-n2nc(C(C)(C)C)cc2NC(=O)N[C@H]2CC[C@@H](Oc3ccc4nnc(N5CCN(C)CC5)n4c3)c3ccccc32)cc1`: the pIC50 in assay [1] is 9.00; in assay [2] it was 8.60. Also, the T1/2 in assay [3] worked out at 9 h.
Take `Cc1ccc(-n2nc(C(C)(C)C)cc2NC(=O)N[C@H]2CC[C@@H](Oc3ccc4nnc(C5CCCC5)n4c3)c3ccccc32)cc1`: the pIC50 in assay [1] was 10.00; in assay [2], 9.52. Further, in assay [3], the T1/2 is above 16 h.
For `Cc1ccc(-n2nc(C(C)(C)C)cc2NC(=O)N[C@H]2CC[C@@H](Oc3ccc4nnc(N5CCC(O)CC5)n4c3)c3ccccc32)cc1`, the pIC50 is 9.30 in assay [1] and 8.68 in assay [2]. In assay [3], the T1/2 is above 16 h.
On the same counts, the results for `C[C@H]1CCCCN1c1nnc2ccc(O[C@@H]3CC[C@H](NC(=O)Nc4cc(C(C)(C)C)nn4-c4cnn(CCN5CCN(C)CC5)c4)c4ccccc43)cn12` are 9.52, 8.49 and above 16 h.
For `CC(C)c1nnc2ccc(O[C@@H]3CC[C@H](NC(=O)Nc4cc(C(C)(C)C)nn4-c4ccc(Cl)c(O)c4)c4ccccc43)cn12`, the figures for the pIC50 in assay [1] and in assay [2] were 10.30 and 9.15, respectively. Moreover, the T1/2 in assay [3] was determined as 0.89 h.
Turning to `CC(C)(C)c1cc(NC(=O)N[C@H]2CC[C@@H](Oc3ccc4nnc(N5CCCCC5)n4c3)c3ccccc32)n(-c2cccc(CO)c2)n1`, the pIC50 in assay [1] is 9.22; in assay [2], 9.70. Further, the T1/2 in assay [3] was above 16 h.
The corresponding values for `CC(C)c1nnc2ccc(O[C@@H]3CC[C@H](NC(=O)Nc4cc(C(C)(C)C)nn4-c4ccccc4)c4ccccc43)cn12` are 10.22, 9.30 and 1.74 h.
As to `CN(C)CCOc1cc(-n2nc(C(C)(C)C)cc2NC(=O)N[C@H]2CC[C@@H](Oc3ccc4nnc(N5CCCCC5)n4c3)c3ccccc32)ccc1Cl`, the pIC50 in assay [1] is 9.70; in assay [2], 8.85. Further, the T1/2 in assay [3] was found to be 3.5 h.
`C[C@H]1CCCCC1c1nnc2ccc(O[C@@H]3CC[C@H](NC(=O)Nc4cc(C(C)(C)C)nn4-c4cccc(CN5CCN(C)CC5)c4)c4ccccc43)cn12` (stereo partly specified): the pIC50 in assay [1] was 9.52; in assay [2], 9.00. Further, the T1/2 in assay [3] was above 16 h.
For `Cc1ccc(-n2nc(C(C)(C)C)cc2NC(=O)N[C@H]2CC[C@@H](Oc3ccc4nnc(N5CCOCC5)n4c3)c3ccccc32)cc1`, the pIC50 in assay [1] is 8.96; in assay [2], 9.05. Further, the T1/2 in assay [3] came out at 5.8 h.
The corresponding values for `CC(C)c1nnc2ccc(O[C@@H]3CC[C@H](NC(=O)Nc4cc(C(C)(C)C)nn4-c4ccc(O)c(Cl)c4)c4ccccc43)cn12` are 10.10, 8.96 and 1.31 h.
As for `CC(C)(C)c1cc(NC(=O)N[C@H]2CC[C@@H](Oc3ccc4nnc(N5CCCCC5)n4c3)c3ccccc32)n(-c2cccc(CN3CCCCC3)c2)n1`, the pIC50 in assay [1] is 8.89; in assay [2], 8.72. Moreover, in assay [3], the T1/2 is 1.2 h.
For `CC(C)(C)c1cc(NC(=O)N[C@H]2CC[C@@H](Oc3ccc4nnc(N5CCCCC5)n4c3)c3ccccc32)n(-c2ccc(Cl)c(O)c2)n1`, the negative logarithm of the IC50 (pIC50) in assay [1] was 9.30; in assay [2], 9.70. Besides, the T1/2 in assay [3] is above 16 h.
`C[C@H]1CCCCN1c1nnc2ccc(O[C@@H]3CC[C@H](NC(=O)Nc4cc(C(C)(C)C)nn4-c4cnn(CCN5CCOCC5)c4)c4ccccc43)cn12`: the pIC50 in assay [1] is 9.30; in assay [2], 8.74. The T1/2 in assay [3] was above 16 h.
As to `C[C@H]1CCCCN1c1nnc2ccc(O[C@@H]3CC[C@H](NC(=O)Nc4cc(C(C)(C)C)nn4-c4cnnc(OCCN(C)C)c4)c4ccccc43)cn12`, the pIC50 is 9.52 in assay [1] and 8.92 in assay [2]. Besides, in assay [3], the T1/2 came out at 1.1 h.
For the molecule `C[C@H]1CCCCN1c1nnc2ccc(O[C@@H]3CC[C@H](NC(=O)Nc4cc(C(C)(C)C)nn4-c4ccn(CCN(C)C)n4)c4ccccc43)cn12`, the pIC50 in assay [1] is 9.70; in assay [2], 8.57. The T1/2 in assay [3] came to 1.9 h.
In the case of `CN1CCN(Cc2ccc(-n3nc(C(C)(C)C)cc3NC(=O)N[C@H]3CC[C@@H](Oc4ccc5nnc(N6CCCCC6)n5c4)c4ccccc43)cc2)CC1`, the values for the pIC50 in assay [1] and in assay [2] were 9.22 and 8.66, respectively. Further, the T1/2 in assay [3] turned out to be 1.4 h.
As to `Cc1ccc(-n2nc(C(C)(C)C)cc2NC(=O)N[C@H]2CC[C@H](Oc3ccc4nnc(C(C)C)n4c3)CC2)cc1`, the pIC50 in assay [1] is 8.21; in assay [2], 7.44. In addition, in assay [3], the T1/2 stood at 0.09 h.

As a reminder, the pIC50 is −log10 of the IC50, conventionally taken in molar units.
